# No end group written: not given here.
# Tests used:
# [1] = tested on: donor lymphocytes and platelets; assay type: cell-based, human; conditions: flow cytometric determination; data not shown
# From the text: The PIF assay, as disclosed in U.S. Pat. No. 5,646,003 to Barnea et al., entitled “Preimplantation Factor” issued Jul. 9, 1997, and in U.S. Pat. No. 5,981,198 to Barnea et al., entitled “Preimplantation Factor” granted Nov. 9, 1999, the disclosures of which are incorporated herein by reference in their entirety, may be used to measure the response of the immune system to pregnancy specific preimplantation factors. […] Lymphocyte-platelet rosettes result from the interaction of the T cell surface protein CD2 with its ligand CD58 expressed on the platelet membrane. Anti-CD2, by binding to the CD2 antigen on the T cells, inhibits their interaction with platelets.
# (§1) Human PBMC were isolated by the Ficoll method. FITC-labeled nPIF-115 (SEQ ID NO: 1) and (FITC)-labeled scrPIF-1 (SEQ ID NO:5) and match-size irrelevant peptide (FITC)-labeled negative controls negPIF-1(15) (SEQ ID NO:11), were dissolved in PBS at concentrations ranging from 0.75 to 48.19 μM, and were incubated with 500,000 lymphocytes for 1 h at room temperature. The cells were washed 6 times with PBS and resuspended in 500 μl of the same buffer. T-cells and monocytes identification was performed in independent experiments by incubation with anti-CD3 and anti-CD14 antibody-phycoerithryn (PE) labeled. nPIF-115 (SEQ ID NO: 1) binding to PBMC was determined by flow cytometry. In addition, rosettes formed by T cell-platelets were detected by flow cytometry using anti-CD3 antibody-PE and anti-CD41a antibody-FITC (all antibodies were from Pharmingen Inc.).
# [2] = tested on: epithelial cells; assay: PIF binding to endometrial epithelial cells (MaBCD2 staining); design: species or system human; conditions: compared to non-relevant IgG
# Experimental: (§2) In addition, to compare the recovery of β-3 integrin expression with PIF effects described after cultured hEEC in a free-fetal bovine serum (FBS) medium some cells were cultured again in FBS-medium. […] PIF binding to epithelial cells was also examined. Binding was examined using MaBCD2 staining.
# [3] = tested on: β-3 integrin; assay: β-3 integrin expression by human endometrial epithelial cells (flow cytometry, immunocytochemistry); assay type: cell-based; conditions: hEEC, 2-day culture, 1-500 nM
# Experimental: Human endometrial tissues were digested and stromal and epithelial cells (hEEC) isolated and cultured with a fetal bovine serum (FBS)-enriched medium until confluent layers were obtained. After that the cells were cultured for two more days in a FBS free-medium followed by a further 2-day culture in the same medium containing PIF peptides (1-500 nM).
# as §2
# [4] = tested on: PBMC; assay: PIF and analogues on release of cytokines +/- platebound mAbCD3 (Table 4); assay type: cell-based; design: IL-1β / TNFa / IL-4 / IL-5 / IL-6 / IL-10 / GM-CSM / IFN-g: unit not given here
# [5] = tested on: mouse splenocytes; assay: FITC peptide binding to mouse splenocytes with 100 fold excess unlabeled peptide; design: species or system C57Bl/6 mice; conditions: 300 nM FITC peptide, 100 fold excess unlabeled PIF
# Experimental: Virgin female C57Bl/6 mice were sacrificed and spleen cells were isolated and placed in AIM V culture media with 300 nM FITC PIF-1 (15)+/−100 fold excess unlabeled PIF. Following incubation cells were placed in a flow cytometry and the percentage of cells stained examined.
# Splenocytes from virgin female C57BL/6 mice were stained with 300 nM of PIF-1-FITC or scrPIF-1-FITC. Filled histograms indicated PIF-1-FITC or scrPIF-1-FITC alone. Empty histograms represent PIF-1-FITC or scrPIF-1-FITC staining in the presence of 100-fold excess of corresponding unlabeled peptide. Histograms represent both monocytes and lymphocytes according to scatter gating.
# Cells were evaluated using flow cytometry determining labeled cells population Filled histograms indicate PIF-FITC or scrPIF-FITC alone. […] Empty histograms represent PIF-FITC or scrPIF-FITC staining in the presence of 100-fold excess of corresponding unlabeled peptide. Histograms represent both monocytes and lymphocytes according to scatter gating.
# [6] = tested on: PBMC; assay: FITC-labeled PIF binding to PBMC subpopulations (flow cytometry); design: species or system human
# Experimental: Expression of PIF-1(15) (SEQ ID NO:1), receptor following PHA induced PBMC proliferation CD-4 T cells; CD-8 T cells; NK cell and B cells (unstimulated-top); (PHA stimulated-bottom). Flow cytometry analysis of PBMC following exposure to FITC sPIF-1(15) (SEQ ID NO:13) % expression was determined in PBMC subtypes before and after exposure to 1 ug/ml PHA for 24 hours.
# as §1
# Using flow cytometry fluoroscein-labeled sPIF-115 (SEQ ID NO: 13) binding to immune cells was examined on resting PBMC.
# [7] = Whole body distribution of FITC labeled PIF-1 after IV and IP injection; assay type: in vivo, rats
# Experimental: In a further experiment, PIF presence in the spleen was confirmed in vivo, In addition, PIF presence in the cecum, bone marrow and uterus was determined. Adult female rats were injected FITC labeled PIF-1 500 nM in 100 ul volume IV and IP (Eric Solon QPS Inc). 5 and 30 minutes later rats were sacrificed and snap frozen in hexane embedded in frozen media. Whole body 40 um cryo sectioned were obtained and scaaned with a 9140 Typhoon bioimage scanner at a FITC excitation length.
# [8] = tested on: CD3; assay: CD3 expression in PBMC (flow cytometry, MAbCD3-PE); assay type: cell-based; conditions: PBMC exposed 3 days, 2-200 nM
# Experimental: Fluorescent PIF peptides bind to immune cell membranes following activation. […] CD69 is expressed during activation of lymphocytes and monocytes, and is a marker of NK cells activation. CD25 is the receptor for IL-2, and a known activation marker as well. […] The expression of CD3 in PBMC was examined following exposure for 3 days to sPIF-1(15) (SEQ ID NO:13) (2-200 nM) using 20 ul MAbCD3-PE (BD).
# [9] = tested on: CD2; assay: CD2 expression in PBMC (flow cytometry, CD2MAb-FITC); assay type: cell-based; conditions: PBMC exposed 3 days
# [10] = tested on: PBMC; assay: PIF-1 effects on cytokine expression in patient and control PBMC (Table 7); assay type: cell-based, human; conditions: PHA +, PIF-115 −
# [11] = tested on: PBMC; assay: Time-dependent cytokine secretion by PBMC (Table 3); assay type: cell-based, human; conditions: substance alone
# Experimental: Detailed time dependent and multiple controls were used the secretion of several cytokines by PBMC (IL-2, IL-5, IL-8, GM-CSF, IL-4, IL-10, TNF-α, IFN-γβ, IL-1 and IL-6) were measured. […] By 4 hours, sPIF-1 blocked TNF alpha with recovery by 24 hours. Also INFgamma secretion initiated only after 48 hours. […] Effects on cytokines was already noted at 0.7 nM. Similar effects were found also with other mitogens LPS and PHA when PIF-1 was tested.
# [12] = tested on: mice; assay: Intravaginal administration twice daily for seven days in mated mice; assay type: in vivo; conditions: mice that conceived; implantation sites and viable embryos unaffected
# Experimental: Female mice were mated with mice from the same strain. Subsequently, on day 0 (presumed day of mating) PIF-1scr in saline solution was administered intravaginally twice daily for seven days (Dr Alan Hoberman, Argus, Inc). The dose was 800 ug/day, 150 ug/ml or saline vehicle only (5 animals in each group). Subsequently, mice were sacrificed at day 12 of presumed gestation and Caesarean-sectioned. Corpora lutea, implantation sites and live and dead embryos were recorded.
# [13] = PBMC within 24 hrs of PHA activation
substance,measurement,setting,value
MVRIKPGSA [sPIF-1(9)],increase in the number of rosettes in the presence of the anti-CD2 antibody,[1],four-fold increase
same,binding to epithelial cells,[2],highest binding
same,increase in the expression of β-3-epithelial integrin,[3],up to a four-fold increase
same,GM-CSM,"[4]; C- (platebound mAbCD3), /1",14.3
same,IFN-g,"[4]; C- (platebound mAbCD3), /1",86.5
same,IL-1β,"[4]; C- (platebound mAbCD3), /1",4.8
same,IL-2,"[4]; C- (platebound mAbCD3), /1",26.4
same,IL-4,"[4]; C- (platebound mAbCD3), /1",0
same,IL-5,"[4]; C- (platebound mAbCD3), /1",0
same,IL-6,"[4]; C- (platebound mAbCD3), /1",177.6
same,IL-8,"[4]; C- (platebound mAbCD3), /1",>5000
same,IL-10,"[4]; C- (platebound mAbCD3), /1",49.0
same,TNFa,"[4]; C- (platebound mAbCD3), /1",60.1
same,GM-CSM,"[4]; C- (platebound mAbCD3), /50",25.3
same,IFN-g,"[4]; C- (platebound mAbCD3), /50",132.1
same,IL-1β,"[4]; C- (platebound mAbCD3), /50",7.8
same,IL-2,"[4]; C- (platebound mAbCD3), /50",33.7
same,IL-4,"[4]; C- (platebound mAbCD3), /50",18.16
same,IL-5,"[4]; C- (platebound mAbCD3), /50",0
same,IL-6,"[4]; C- (platebound mAbCD3), /50",249.4
same,IL-8,"[4]; C- (platebound mAbCD3), /50",>5000
same,IL-10,"[4]; C- (platebound mAbCD3), /50",105.0
same,TNFa,"[4]; C- (platebound mAbCD3), /50",160.8
same,GM-CSM,"[4]; U- (no mAbCD3), /1",0
same,IFN-g,"[4]; U- (no mAbCD3), /1",0
same,IL-1β,"[4]; U- (no mAbCD3), /1",0
same,IL-2,"[4]; U- (no mAbCD3), /1",0
same,IL-4,"[4]; U- (no mAbCD3), /1",0
same,IL-5,"[4]; U- (no mAbCD3), /1",0
same,IL-6,"[4]; U- (no mAbCD3), /1",40.8
same,IL-8,"[4]; U- (no mAbCD3), /1",772.46
same,IL-10,"[4]; U- (no mAbCD3), /1",0
same,TNFa,"[4]; U- (no mAbCD3), /1",0
same,GM-CSM,"[4]; U- (no mAbCD3), /50",0
same,IFN-g,"[4]; U- (no mAbCD3), /50",0
same,IL-1β,"[4]; U- (no mAbCD3), /50",0
same,IL-2,"[4]; U- (no mAbCD3), /50",13.1
same,IL-4,"[4]; U- (no mAbCD3), /50",0
same,IL-5,"[4]; U- (no mAbCD3), /50",0
same,IL-6,"[4]; U- (no mAbCD3), /50",38.7
same,IL-8,"[4]; U- (no mAbCD3), /50",1480.2
same,IL-10,"[4]; U- (no mAbCD3), /50",0
same,TNFa,"[4]; U- (no mAbCD3), /50",0
same,effect on IL6 and 8,[4]; non-stimulated PBMC,stimulatory effect
FITC sPIF-1(15): sPIF-1(15) labeled on N-terminus with fluorescein isothyocyanate via b-alanine spacer,dissociation of FITC PIF from the PIF receptor by unlabeled peptide,[5],> 90%
same,B cells positive for fluorescent PIF binding,[6]; [13],> 90%
same,T lymphocytes positive for fluorescent PIF binding,[6]; [13],60-80%
same,IP pick up,"[7]; 500 nM in 100 ul IP, 5 and 30 minutes",slower with major collection in the cecum
same,organs with specific pick up,"[7]; 500 nM in 100 ul IV, 5 and 30 minutes","spleen, bone marrow and uterus"
same,elimination,"[7]; IV injected, FIG. 19",rapid elimination by the kidney
SGIVIYQYMDDRYVGSDL [sPIF-3(18)],binding to epithelial cells,[2],mild
"GMRELQRSANK [negPIF-1(15), reference compound]",labeling of T cell-platelet rosettes by FITC-labeled peptide,"[6]; 0.75 to 48.19 μM, 1 h room temperature",not labeled
SQAVQEHASTNMG [sPIF-2(13)],increase in CD3 receptor expression,[8],180-230%
same,increase in CD2 expression,[9],125-160%
same,binding to epithelial cells,[2],mild
same,increase in the expression of β-3-epithelial integrin,[3],up to a four-fold increase
"phytohemmaglutinin [PHA, reference compound]",IL-10,[10]; control,25.72 % of total PBMC in scatter gate
same,TH1/TH2,[10]; control,0.68
same,TNFα,[10]; control,17.43 % of total PBMC in scatter gate
same,IL-10,[10]; patient,24.76 % of total PBMC in scatter gate
same,TH1/TH2,[10]; patient,0.57
same,TNFα,[10]; patient,14.23 % of total PBMC in scatter gate
same,GM-CSF,[11]; 4 h post induction,60.4 pg/mL
same,IFN-y,[11]; 4 h post induction,0 pg/mL
same,IL-1β,[11]; 4 h post induction,891.2 pg/mL
same,IL-2,[11]; 4 h post induction,28.7 pg/mL
same,IL-4,[11]; 4 h post induction,0 pg/mL
same,IL-5,[11]; 4 h post induction,0 pg/mL
same,IL-6,[11]; 4 h post induction,7045.0 pg/mL
same,IL-8,[11]; 4 h post induction,0 pg/mL
same,IL-10,[11]; 4 h post induction,13.3 pg/mL
same,TNF-α,[11]; 4 h post induction,18829.1 pg/mL
same,GM-CSF,[11]; 24 h post induction,60.0 pg/mL
same,IFN-y,[11]; 24 h post induction,1728.8 pg/mL
same,IL-1β,[11]; 24 h post induction,5010.5 pg/mL
same,IL-2,[11]; 24 h post induction,2800.6 pg/mL
same,IL-4,[11]; 24 h post induction,60.0 pg/mL
same,IL-5,[11]; 24 h post induction,125.0 pg/mL
same,IL-6,[11]; 24 h post induction,>5200 pg/mL
same,IL-8,[11]; 24 h post induction,>6330 pg/mL
same,IL-10,[11]; 24 h post induction,1411.5 pg/mL
same,TNF-α,[11]; 24 h post induction,>11390 pg/mL
same,GM-CSF,[11]; 48 h post induction,0 pg/mL
same,IFN-y,[11]; 48 h post induction,0 pg/mL
same,IL-1β,[11]; 48 h post induction,0 pg/mL
same,IL-2,[11]; 48 h post induction,0 pg/mL
same,IL-4,[11]; 48 h post induction,0 pg/mL
same,IL-5,[11]; 48 h post induction,0 pg/mL
same,IL-6,[11]; 48 h post induction,0 pg/mL
same,IL-8,[11]; 48 h post induction,5634.0 pg/mL
same,IL-10,[11]; 48 h post induction,0 pg/mL
same,TNF-α,[11]; 48 h post induction,0 pg/mL
same,GM-CSF,[11]; 96 h post induction,0 pg/mL
same,IFN-y,[11]; 96 h post induction,0 pg/mL
same,IL-1β,[11]; 96 h post induction,0 pg/mL
same,IL-2,[11]; 96 h post induction,0 pg/mL
same,IL-4,[11]; 96 h post induction,0 pg/mL
same,IL-5,[11]; 96 h post induction,0 pg/mL
same,IL-6,[11]; 96 h post induction,0 pg/mL
same,IL-8,[11]; 96 h post induction,>6330 pg/mL
same,IL-10,[11]; 96 h post induction,0 pg/mL
same,TNF-α,[11]; 96 h post induction,0 pg/mL
"GRVDPSNKSMPKDIA [scrPIF-115, GRVDPSNKSMPKDIA]",toxic or teratogenic effects,[12],No toxic or teratogenic effects
